Assay results from ChEMBL document CHEMBL5506059, “Cyanomethylquinolones as a New Class of Potential Multitargeting Broad-Spectrum Antibacterial Agents” (J Med Chem, 2024).
Values after ≈ are worked out from the molar mass of the structure shown. Active and inactive are the calls of the source. The rule behind the calls is not given here.

Legend:
Erythrocyte = assay: Hemolytic activity in human Red blood cells assessed as concentration required for 5% hemolysis measured after 1.5 hrs by absorbance based assay; assay type: toxicity, cell-based
Escherichia coli [1] = assay: Antibacterial activity against Escherichia coli ATCC 25922 assessed as inhibition of bacterial growth incubated for 24 hrs; assay type: functional
Staphylococcus aureus [2] = assay: Resistance development in methicillin resistant Staphylococcus aureus assessed as increase in MIC measured after 20 days; assay type: functional, organism-based; conditions: time 20.0 day
Staphylococcus aureus [3] = assay: Antibacterial activity against Staphylococcus aureus clinical isolate assessed as inhibition of bacterial growth incubated for 24 hrs; assay type: functional
Cell membrane [4] = assay: Induction of cell membrane damage in methicillin-resistant Staphylococcus aureus assessed as increase in nucleic acid leakage at 0 to 2 ug/ml incubated for 12 hrs by optical density based microplate reader analysis; assay type: cell membranes; conditions: dose 0-2 µg/ml
Cell membrane [5] = assay: Induction of cell membrane depolarization in methicillin-resistant Staphylococcus aureus assessed as increase in fluorescence intensity at 1 ug/ml measured for 30 mins by DiSC35 dye based fluorescence analysis; assay type: cell membranes; conditions: dose 1.0 µg/ml
Pseudomonas aeruginosa [6] = assay: Antibacterial activity against Pseudomonas aeruginosa clinical isolate assessed as inhibition of bacterial growth incubated for 24 hrs; assay type: functional
Staphylococcus aureus [7] = assay: Antibacterial activity against methicillin resistant Staphylococcus aureus clinical isolate assessed as inhibition of bacterial growth incubated for 24 hrs; assay type: functional
Cell membrane [8] = assay: Induction of cell membrane permeability in methicillin-resistant Staphylococcus aureus assessed as increase in fluorescence intensity at 1 to 2 ug/ml incubated for 6 hrs by PI staining based fluorescence analysis; assay type: cell membranes; conditions: dose 1-2 µg/ml
[9] = system: Staphylococcus epidermidis; assay: Antibacterial activity against Staphylococcus epidermidis ATCC 12228 assessed as inhibition of bacterial growth incubated for 24 hrs; assay type: functional
Enterococcus faecium = assay: Antibacterial activity against Enterococcus faecium ATCC 19434 assessed as inhibition of bacterial growth incubated for 24 hrs; assay type: functional
Pseudomonas aeruginosa [10] = assay: Antibiofilm activity in Pseudomonas aeruginosa assessed as biofilm eradication measured after 24 hrs by crystal violet staining based analysis; assay type: functional, organism-based; conditions: dose 1-2 µg/ml
Enterococcus faecalis [11] = assay: Antibacterial activity against vancomycin-resistant Enterococcus faecalis clinical isolate p1-2007226001 assessed as inhibition of bacterial growth incubated for 24 hrs; assay type: functional
Staphylococcus aureus [12] = assay: Antibacterial activity against Staphylococcus aureus ATCC 12600 assessed as inhibition of bacterial growth incubated for 24 hrs; assay type: functional
Staphylococcus aureus [13] = assay: Antibacterial activity against Staphylococcus aureus ATCC 6538 assessed as inhibition of bacterial growth incubated for 24 hrs; assay type: functional
Staphylococcus aureus [14] = assay: Antibacterial activity against methicillin resistant Staphylococcus aureus clinical isolate assessed as inhibition of bacterial growth incubated under dark condition and measured upto 5 hrs; assay type: functional, organism-based
Staphylococcus aureus [15] = assay: Antibacterial activity against Staphylococcus aureus CMCC(B)26001 assessed as inhibition of bacterial growth incubated for 24 hrs; assay type: functional
Staphylococcus aureus [16] = assay: Antibacterial activity against methicillin resistant Staphylococcus aureus assessed as reduction in metabolic activity by measuring reduction in fluorescence intensity at 0.5 to 2 times MIC incubated for 6 hrs by alamar blue assay; assay type: functional, organism-based
Acinetobacter baumannii = assay: Antibacterial activity against Acinetobacter baumannii clinical isolate assessed as inhibition of bacterial growth incubated for 24 hrs; assay type: functional
[17] = Hemolytic activity in human Red blood cells at 256 ug/ml measured after 1.5 hrs by absorbance based assay relative to control; assay type: toxicity, cell-based, Erythrocyte; conditions: red blood cells (erythrocytes), at 256 µg/mL, read-out: Activity
Staphylococcus aureus [18] = assay: Antibacterial activity against Staphylococcus aureus ATCC 29213 assessed as inhibition of bacterial growth incubated for 24 hrs; assay type: functional
Enterococcus faecalis [19] = assay: Antibacterial activity against vancomycin-resistant Enterococcus faecalis clinical isolate p1-2007225053 assessed as inhibition of bacterial growth incubated for 24 hrs; assay type: functional
Staphylococcus aureus [20] = assay: Antibacterial activity against Staphylococcus aureus CMCC(B)26003 assessed as inhibition of bacterial growth incubated for 24 hrs; assay type: functional
Streptococcus pyogenes = assay: Antibacterial activity against Streptococcus pyogenes ATCC 19615 assessed as inhibition of bacterial growth incubated for 24 hrs; assay type: functional
Escherichia coli [21] = assay: Antibacterial activity against Escherichia coli clinical isolate assessed as inhibition of bacterial growth incubated for 24 hrs; assay type: functional
Pseudomonas aeruginosa [22] = assay: Antibacterial activity against Pseudomonas aeruginosa assessed as reduction in metabolic activity by measuring reduction in fluorescence intensity at 0.5 to 2 times MIC incubated for 6 hrs by alamar blue assay; assay type: functional, organism-based
Pseudomonas aeruginosa [23] = assay: Induction of intracellular ROS generation in Pseudomonas aeruginosa assessed as increase in fluorescence intensity at 2 ug/ml incubated for 6 hrs by DCFH-DA dye based fluorescence analysis; assay type: functional, organism-based; conditions: dose 2.0 µg/ml
Enterococcus faecalis [24] = assay: Antibacterial activity against Enterococcus faecalis clinical isolate assessed as inhibition of bacterial growth incubated for 24 hrs; assay type: functional
Klebsiella pneumoniae = assay: Antibacterial activity against Klebsiella pneumoniae clinical isolate assessed as inhibition of bacterial growth incubated for 24 hrs; assay type: functional
Pseudomonas aeruginosa [25] = assay: Resistance development in Pseudomonas aeruginosa assessed as increase in MIC measured after 20 days; assay type: functional, organism-based; conditions: time 20.0 day
Pseudomonas aeruginosa [26] = assay: Antibacterial activity against Pseudomonas aeruginosa ATCC 27853 assessed as inhibition of bacterial growth incubated for 24 hrs; assay type: functional
Staphylococcus aureus [27] = assay: Antibiofilm activity in methicillin resistant Staphylococcus aureus assessed as biofilm eradication measured after 24 hrs by crystal violet staining based analysis; assay type: functional, organism-based; conditions: dose 1-2 µg/ml
Streptococcus pneumoniae = assay: Antibacterial activity against Streptococcus pneumoniae ATCC 6305 assessed as inhibition of bacterial growth incubated for 24 hrs; assay type: functional
Cell membrane [28] = assay: Induction of cell membrane permeability in Pseudomonas aeruginosa assessed as increase in fluorescence intensity at 1 to 2 ug/ml incubated for 6 hrs by PI staining based fluorescence analysis; assay type: cell membranes; conditions: dose 1-2 µg/ml
Pseudomonas aeruginosa [29] = assay: Induction of intracellular ROS generation in Pseudomonas aeruginosa assessed as increase in fluorescence intensity at 2 ug/ml incubated for 6 hrs in presence of N-acetyl-L-cysteine by DCFH-DA dye based fluorescence analysis; assay type: functional, organism-based; conditions: dose 2.0 µg/ml
Staphylococcus aureus [30] = assay: Antibacterial activity against methicillin-resistant Staphylococcus aureus ATCC 43300 assessed as inhibition of bacterial growth incubated for 24 hrs; assay type: functional
Cell membrane [31] = assay: Induction of cell membrane damage in Pseudomonas aeruginosa assessed as increase in nucleic acid leakage at 0 to 2 ug/ml incubated for 12 hrs by optical density based microplate reader analysis; assay type: cell membranes; conditions: dose 0-2 µg/ml
Cell membrane [32] = assay: Induction of cell membrane depolarization in Pseudomonas aeruginosa assessed as increase in fluorescence intensity at 1 ug/ml measured for 30 mins by DiSC35 dye based fluorescence analysis; assay type: cell membranes; conditions: dose 1.0 µg/ml
Staphylococcus aureus [33] = assay: Antibacterial activity against Staphylococcus aureus ATCC 25923 assessed as inhibition of bacterial growth incubated for 24 hrs; assay type: functional
Cell membrane [34] = assay: Induction of cell membrane permeability in Pseudomonas aeruginosa assessed as increase in fluorescence intensity at 1 ug/ml incubated for 6 hrs by PI staining based fluorescence analysis; assay type: cell membranes; conditions: dose 1.0 µg/ml
Staphylococcus aureus [35] = assay: Induction of morphological changes in methicillin resistant Staphylococcus aureus at 2 ug/ml incubated for 3 hrs by SEM analysis; assay type: functional, organism-based; conditions: dose 2.0 µg/ml
Pseudomonas aeruginosa [36] = assay: Induction of morphological changes in Pseudomonas aeruginosa at 2 ug/ml incubated for 3 hrs by SEM analysis; assay type: functional, organism-based; conditions: dose 2.0 µg/ml
Staphylococcus aureus [37] = assay: Resistance development in ciprofloxacin-treated Staphylococcus aureus ATCC 6538 assessed as increase in MIC measured after 15th generation; assay type: functional, organism-based
Pseudomonas aeruginosa [38] = assay: Resistance development in ciprofloxacin-treated Pseudomonas aeruginosa ATCC 27853 assessed as increase in MIC measured after 15th generation; assay type: functional, organism-based
Cell membrane [39] = assay: Induction of cell membrane permeability in methicillin-resistant Staphylococcus aureus assessed as increase in fluorescence intensity at 1 ug/ml incubated for 6 hrs by PI staining based fluorescence analysis; assay type: cell membranes; conditions: dose 1.0 µg/ml
Pseudomonas aeruginosa [40] = assay: Bactericidal activity against Pseudomonas aeruginosa assessed as increase in fluorescence intensity at 2 ug/ml incubated for 6 hrs by PI staining based fluorescence analysis; assay type: functional, organism-based; conditions: dose 2.0 µg/ml
Staphylococcus aureus [41] = assay: Resistance development in ciprofloxacin-treated methicillin resistant Staphylococcus aureus assessed as increase in MIC measured after 15th generation; assay type: functional, organism-based
Staphylococcus aureus [42] = assay: Bactericidal activity against methicillin-resistant Staphylococcus aureus assessed as increase in fluorescence intensity at 2 ug/ml incubated for 6 hrs by PI staining based fluorescence analysis; assay type: functional, organism-based; conditions: dose 2.0 µg/ml
Pseudomonas aeruginosa [43] = assay: Antibiofilm activity in Pseudomonas aeruginosa assessed as biofilm eradication at 1 to 2 ug/ml measured after 24 hrs by crystal violet staining based analysis; assay type: functional, organism-based; conditions: dose 1-2 µg/ml
Pseudomonas aeruginosa [44] = assay: Resistance development in ciprofloxacin-treated Pseudomonas aeruginosa assessed as increase in MIC measured after 15th generation; assay type: functional, organism-based
Staphylococcus aureus [45] = assay: Antibiofilm activity in methicillin resistant Staphylococcus aureus assessed as biofilm eradication at 1 to 2 ug/ml measured after 24 hrs by crystal violet staining based analysis; assay type: functional, organism-based; conditions: dose 1-2 µg/ml

O=C(O)Cc1cc2c(cc1F)c(=O)c(C(=O)O)cn2C1CC1
HC5 (Erythrocyte): > 10000 µg/mL
MIC (Escherichia coli [1]): 0.5 µg/mL (≈ 1.64 µM)
Activity (Staphylococcus aureus [2]): inactive
MIC (Staphylococcus aureus [3]): 4 µg/mL (≈ 13.1 µM)
Activity (Cell membrane [4]): Active
Activity (Cell membrane [5]): Active
MIC (Pseudomonas aeruginosa [6]): 0.5 µg/mL (≈ 1.64 µM)
MIC (Staphylococcus aureus [7]): 0.5 µg/mL (≈ 1.64 µM)
Activity (Cell membrane [8]): Active
MIC [9]: 2 µg/mL (≈ 6.55 µM)
MIC (Enterococcus faecium): 8 µg/mL (≈ 26.2 µM)
Activity (Pseudomonas aeruginosa [10]): Dose-Dependent Effect
MIC (Enterococcus faecalis [11]): 8 µg/mL (≈ 26.2 µM)
MIC (Staphylococcus aureus [12]): 1 µg/mL (≈ 3.28 µM)
MIC (Staphylococcus aureus [13]): 0.25 µg/mL (≈ 0.819 µM)
Activity (Staphylococcus aureus [14]): Dose-Dependent Effect
MIC (Staphylococcus aureus [15]): 0.125 µg/mL (≈ 0.409 µM)
Activity (Staphylococcus aureus [16]): Active
MIC (Acinetobacter baumannii): 0.5 µg/mL (≈ 1.64 µM)
hemolysis at 1.5 h, 256 ug/ml [17]: < 1%
MIC (Staphylococcus aureus [18]): 2 µg/mL (≈ 6.55 µM)
MIC (Enterococcus faecalis [19]): 2 µg/mL (≈ 6.55 µM)
MIC (Staphylococcus aureus [20]): 0.125 µg/mL (≈ 0.409 µM)
MIC (Streptococcus pyogenes): 1 µg/mL (≈ 3.28 µM)
MIC (Escherichia coli [21]): 1 µg/mL (≈ 3.28 µM)
Activity (Pseudomonas aeruginosa [22]): Active
Activity (Pseudomonas aeruginosa [23]): Active
MIC (Enterococcus faecalis [24]): 4 µg/mL (≈ 13.1 µM)
MIC (Klebsiella pneumoniae): 8 µg/mL (≈ 26.2 µM)
Activity (Pseudomonas aeruginosa [25]): inactive
MIC (Pseudomonas aeruginosa [26]): 2 µg/mL (≈ 6.55 µM)
Activity (Staphylococcus aureus [27]): Dose-Dependent Effect
MIC (Streptococcus pneumoniae): 4 µg/mL (≈ 13.1 µM)
Activity (Cell membrane [28]): Active
Activity (Pseudomonas aeruginosa [29]): inactive
MIC (Staphylococcus aureus [30]): 2 µg/mL (≈ 6.55 µM)
Activity (Cell membrane [31]): Active
Activity (Cell membrane [32]): Active
MIC (Staphylococcus aureus [33]): 32 µg/mL (≈ 105 µM)

O=C(O)c1cn(C2CC2)c2cc(N3CCNCC3)c(F)cc2c1=O [CIPROFLOXACIN]
Activity (Cell membrane [34]): inactive
Activity (Staphylococcus aureus [35]): Active
Activity (Pseudomonas aeruginosa [36]): Active
Activity (Cell membrane [5]): inactive
MIC [9]: 0.125 µg/mL (≈ 0.377 µM)
MIC (Enterococcus faecium): 2 µg/mL (≈ 6.04 µM)
MIC (Staphylococcus aureus [13]): 0.5 µg/mL (≈ 1.51 µM)
Activity (Staphylococcus aureus [37]): Active
Activity (Pseudomonas aeruginosa [38]): Active
Activity (Cell membrane [39]): inactive
Activity (Pseudomonas aeruginosa [40]): Active
Activity (Staphylococcus aureus [41]): Active
MIC (Staphylococcus aureus [18]): 0.5 µg/mL (≈ 1.51 µM)
MIC (Streptococcus pyogenes): 16 µg/mL (≈ 48.3 µM)
Activity (Pseudomonas aeruginosa [23]): Active
Activity (Staphylococcus aureus [42]): Active
Activity (Pseudomonas aeruginosa [43]): inactive
MIC (Streptococcus pneumoniae): 0.125 µg/mL (≈ 0.377 µM)
Activity (Pseudomonas aeruginosa [44]): Active
Activity (Staphylococcus aureus [45]): inactive
Activity (Pseudomonas aeruginosa [29]): inactive
Activity (Cell membrane [32]): inactive
MIC (Staphylococcus aureus [33]): 1 µg/mL (≈ 3.02 µM)
